This note sets out measurements from EPA's ToxValDB 9.5 (doi:10.2903/j.efsa.2018.5146).

Values after ≈ are worked out from the molar mass of the structure shown.

Broadly, the LC50 is the concentration lethal to half of the exposed cells or organisms. As a reminder, the NOAEL is the highest tested level that showed no adverse finding.

One data set has as its system Oncorhynchus mykiss. Particulars: acute; duration: 96 hours; mortality.
The conditions of data set [1]: chronic; duration: 133 days; other.
In the next data set the test system is Folsomia candida. Particulars: chronic/long-term; reproduction.
The test system of another data set is Apis mellifera. Particulars: acute, mortality.
For a further data set, the system named is Rattus norvegicus. Particulars: acute; oral; mortality.
The subject of another data set is Tagia sp. Particulars: chronic/long-term; reproduction.
The next data set relates to Mus musculus. Particulars: organ weight.
A further data set concerns Aphidius rhopalosiphi. The experiment in a line: LR50; higher = less toxic. Particulars: acute; mortality.

`COc1ccnc(C(=O)N[C@H]2COC(=O)[C@H](Cc3ccccc3)[C@@H](OC(=O)C(C)C)[C@H](C)OC2=O)c1OCOC(=O)C(C)C` [Fenpicoxamid] came in with a median lethal concentration (LC50) with Oncorhynchus mykiss of 1.1 µg/mL (≈ 1.79 µM). Moreover, the NOEC turned out to be 0.0001 mg/L in [1], 3.97 mg/kg in the data set with Folsomia candida, 9.93 mg/kg in the data set with Tagia sp. and 12.1 mg/kg-day in the data set on Colinus virginianus (reproduction developmental). Moreover, the NOAEL in the data set with Oryctolagus sp. (chronic, New Zealand, no effects) was determined as 495 mg/kg-day; in the data set with Oryctolagus sp. (reproduction developmental, reproduction), 177 mg/kg-day; in the data set with Mus musculus (chronic, duration: 18 months), 5.27 mg/kg-day; in the data set with Mus musculus (subchronic, duration: 90 days, oral), 39.6 mg/kg-day. Further, the LD50 was more than 202 µg/piece in the data set on Apis mellifera (dermal); more than 303 µg/piece with Apis mellifera (oral, unspecified); more than 2000 mg/kg-day in the data set on Rattus norvegicus; more than 2000 mg/kg-day in the data set with Colinus virginianus (acute, oral, mortality). The compound further displayed an LR50 in the data set with Aphidius rhopalosiphi of more than 129 g/ha.
